How the values were obtained:
NIH 3T3 cells [1] = assay: Basal cytotoxicity MTS assay (cell viability); type: cell-based; details: concentrations below 10 μM, 72-hour incubation, FIG. 6
Protocol: On day one, 5,000 cells per well were plated on a clear 96-well plate (Corning Costar, TC-treated) along with several blank wells with media only. The next day, the media was replaced with 180 μL of DPBS with glucose and 20 μL of 4 (final concentrations from 30 μM to 1 nM were tested, final DMSO concentration=0.1%) and incubated for 30 minutes. The dye solution was removed from the wells and 200 μL of fresh media was added to each well in the plate. The plate was then incubated (37° C., 5% CO2) for 72 hours. Then 40 μL of MTS (Promega, CellTiter 96® AQueous One Solution Cell Proliferation Assay) was added to each well and the plate was incubated (37° C., 5% CO2) for 4 hours. The absorbance of each well at 540 nm was measured on a Synergy HT plate reader (BioTek Instruments, Inc.). All assays were performed in triplicate on three separate plates.

[2] = Photophysical characterization (UV-Vis, fluorescence emission, relative quantum yield); type: physicochemical
Protocol: The UV-Vis and fluorescence emission spectra were recorded on a Synergy HT (BioTek Instruments, Inc.) multi-detection microplate reader equipped with a 10 W Xe flash light source for absorbance and a 20 W tungsten quartz halogen source for fluorescence. Relative quantum yields were determined using rhodamine 6G in ddH2O as a reference while keeping instrument temperature and parameters constant. Serial dilutions of the asymmetric fluorophore (6) were made from a methanol stock; therefore, all dilutions of asymmetric fluorophore (6) were kept at 10% MeOH in water. All fluorescent spectra were intensity corrected using NIST SRM 2941 (excitation wavelength at 427 nm, scan emission monochromator from 450 nm to 650 nm using a 1 nm increment).

[3] = Aqueous solubility of the fluorophore; type: physicochemical; details: pH independent, diluted to 0.1% DMSO from 100 mM DMSO stock
Protocol: The resulting fluorophore (6) was soluble in aqueous solutions (pH independent) up to […] and was diluted down to 0.1% DMSO from a 100 mM, 100% DMSO stock solution. […] Compound (6) has a sharp fluorescence peak and high quantum yield.

NIH 3T3 cells [4] = assay: Fixed cell imaging (whole-cell staining); type: cell-based; details: fixed NIH 3T3 cells, 1 μM
Protocol: NIH 3T3 cell line was obtained from ATCC (Manassas, Va.) and cultured routinely using sterile technique. Cell culture media consisted of DMEM supplemented with 10% FBS and 4 mM GlutaMax (Life Technologies). Both live and fixed cell automated microscopy was performed on a Zeiss AxioObserver Z1 (Carl Zeiss MicroImaging Inc., Jena, Germany) with an EC Plan-Neofluar 10×/0.30 Ph 1 objective (Carl Zeiss, Jena, Germany), and a Coolsnap HQ2 camera (Photometrics, Tucson, Ariz.). All fluorescent microscopy images were collected using a HE38 filter set (Carl Zeiss, Jena, Germany), a Colibri.2 LED light source at 100% intensity, and an exposure time of either 200 ms or 1 second. Performance benchmarking of the fluorescence microscope was performed daily. […] ImageJ (National Institutes of Health, Bethesda, Md.) was used to create figures and to determine the mean fluorescence intensity of cells.
One day prior to imaging, NIH 3T3 cells were seeded at 20,000 cells per well in a 24-well plate (Corning Costar, TC-treated). […] Using ImageJ (National Institutes of Health, Bethesda, Md.) individual cell fluorescence intensities were measured by first segmenting the 8-bit tiff image for the 4/CFSE/FNHS channel by manually finding the minimum intensity below which object boundaries began to expand into the background (the built-in watershed algorithm was also utilized to separate touching objects). […]

NIH 3T3 cells [5] = assay: Live cell imaging (whole-cell staining); type: cell-based; details: live NIH 3T3 cells; for staining pattern compared under same conditions and concentrations: 100 nM, FIG. 3
Protocol: NIH 3T3 cell line was obtained from ATCC (Manassas, Va.) and cultured routinely using sterile technique. Cell culture media consisted of DMEM supplemented with 10% FBS and 4 mM GlutaMax (Life Technologies). Both live and fixed cell automated microscopy was performed on a Zeiss AxioObserver Z1 (Carl Zeiss MicroImaging Inc., Jena, Germany) with an EC Plan-Neofluar 10×/0.30 Ph 1 objective (Carl Zeiss, Jena, Germany), and a Coolsnap HQ2 camera (Photometrics, Tucson, Ariz.). All fluorescent microscopy images were collected using a HE38 filter set (Carl Zeiss, Jena, Germany), a Colibri.2 LED light source at 100% intensity, and an exposure time of either 200 ms or 1 second. Performance benchmarking of the fluorescence microscope was performed daily. All imaging was done on the same day on the same microscope to decrease variations in image intensities. ImageJ (National Institutes of Health, Bethesda, Md.) was used to create figures and to determine the mean fluorescence intensity of cells.
One day prior to imaging, NIH 3T3 cells were seeded at 10,000 cells per well in a 24-well plate (Corning Costar, TC-treated). After 24 hours of incubation (37° C., 5% CO2), the media was removed from the plate and cells were washed once with DPBS (Ca and Mg free, Life Sciences). A total of 320 μL of DPBS with glucose was added to each well, and then 40 μL of Hoechst 33342 (final concentration of 0.5 μg/mL) and 40 μL of 4 (final concentrations from 10 μM to 1 nM were tested, final DMSO concentration=0.1%) or CFSE (final concentrations from 10 μM to 1 nM were tested, final DMSO concentration=0.1%). […] Using ImageJ (National Institutes of Health, Bethesda, Md.) individual cell fluorescence intensities were measured by first segmenting the 8-bit tiff image for the 6/CFSE/FNHS channel by manually finding the minimum intensity below which object boundaries began to expand into the background (the built-in watershed algorithm was also utilized to separate touching objects). Using a histogram of object sizes, the minimal object area was chosen and pixel intensity for each of those objects were recorded. […]

Row | emission ([2]; 10% aqueous methanol, FIG. 1) | maximum excitation ([2]; 10% aqueous methanol, FIG. 1) | relative quantum yield ([2]; 10% aqueous methanol, reference rhodamine 6G in ddH2O) | maximum absorption ([2]; water (10% MeOH), FIG. 1 legend) | maximum excitation (excited at 500 nm) ([2]; water (10% MeOH), excited at 500 nm, FIG. 1 legend) | soluble in aqueous solutions [3] | Molecule | change in cell viability (NIH 3T3 cells [1]) | fluorescence intensity relative to FNHS (quantitative image analysis) (NIH 3T3 cells [4]; FIG. 4) | brightness by visual appearance versus FNHS (NIH 3T3 cells [4]; same conditions, FIG. 5) | staining pattern compared under same conditions and concentrations (NIH 3T3 cells [5]) | staining of live cells (membrane crossing, localisation) (NIH 3T3 cells [5]; 30 minutes of staining, 1 μM, FIG. 2)
1 | 516 nm | 502 nm | 0.84 | 502 nm | 516 nm | up to 1 μM | CC1=C(CCC(=O)ON2C(=O)CCC2=O)C(C)=[N+]2C1=Cc1cccn1[B-]2(F)F [Compound 6, 4,4-difluoro-1,3-dimethyl-4-bora-3a,4a-diaza-s-indacene-2-propionic acid N-hydroxysuccinimide ester] | no significant change in cell viability | three fold brighter than FNHS | appeared brighter than FNHS | less diffuse staining | crossed the cell membrane and stained the cytoplasmic regions with some nuclear staining
2 |  |  |  |  |  |  | carboxyfluorescein succinimidyl ester [CFSE, reference compound] |  |  |  | more diffuse staining pattern | 
